Several values for one entry are separate records, joined by “and”; a condition that tells them apart may be missing. Identical values can stand only once. Like-named read-outs stand apart in the source and are kept apart here. Blank lines part the entries; values can stand above or below the molecule they belong to.
Legend:
[1] = mouse liver microsomes; amides 4; cited from earlier work
MDCK-MDR1 monolayer = conditions: amides 4, cited from earlier work
Notum(81–451 Cys330Ser) = target: T1, Notum(81–451 Cys330Ser) (Homo sapiens, UniProt Q6P988, C330S); assay: Notum biochemical OPTS assay (carboxylesterase activity); conditions: OPTS substrate, 1 h incubation; geometric mean ± s.d.
T1 sequence (Q6P988 81-451 C330S): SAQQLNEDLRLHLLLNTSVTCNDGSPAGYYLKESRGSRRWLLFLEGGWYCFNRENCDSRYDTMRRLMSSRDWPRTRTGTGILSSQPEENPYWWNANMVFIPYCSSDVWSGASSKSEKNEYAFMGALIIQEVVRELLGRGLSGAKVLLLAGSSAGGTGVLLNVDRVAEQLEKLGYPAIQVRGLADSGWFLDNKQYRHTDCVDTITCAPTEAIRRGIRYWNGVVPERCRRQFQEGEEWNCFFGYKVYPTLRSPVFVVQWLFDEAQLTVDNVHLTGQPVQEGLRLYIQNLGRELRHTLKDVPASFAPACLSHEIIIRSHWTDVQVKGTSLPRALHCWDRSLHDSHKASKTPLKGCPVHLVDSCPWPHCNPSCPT

P-gp (MDR1) = assay: MDCK-MDR1 cell permeability and efflux; format: in vitro ADME; conditions: dog
[2] = Mouse pharmacokinetics, single oral dose; format: in vivo; conditions: p.o. 10 mg/kg
Experimental: At this point, mouse pharmacokinetic data for 5l was generated in vivo to determine the extent of plasma exposure and to check the correlation of the in vitro ADME data with in vivo outcomes.
Animal Testing Declaration: In vivo mouse pharmacokinetic data was generated at GVK Biosciences, Hyderabad, India. GVK Biosciences is accredited by AAALAC and OLAW for the ethical treatment of animals. All the animal experiments are conducted in accordance with IAEC approved protocols. See: https://www.gvkbio.com/biology-services/in-vivo-pharmacology/

Aqueous solubility = format: physicochemical; conditions: read-out: Aq. solubility
LogD7.4 = format: physicochemical; conditions: pH 7.4
[3] = Hydrolytic stability in citrate buffer; format: physicochemical; conditions: citrate buffer 0.1 M, pH 4, up to 24 h, UPLC-MS
Notum = target: T2, Notum (Homo sapiens, UniProt Q6P988, C330S); assay: Notum enzymatic stability (biochemical assay without OPTS substrate); conditions: up to 72 h
T2 sequence (Q6P988 81-451 C330S): T1 sequence (Q6P988 81-451 C330S)

[4] = Metabolic stability in mouse liver microsomes (MLM); format: in vitro ADME
Mouse plasma stability = format: in vitro ADME
Description: However, the ER for 24 was perceived to be within acceptable limits based on established precedent.[22] [table]

CYP1A2 = target: T3, CYP1A2 (Homo sapiens, UniProt P05177); assay: CYP1A2 inhibition; format: in vitro ADME
T3 sequence (P05177 1-516): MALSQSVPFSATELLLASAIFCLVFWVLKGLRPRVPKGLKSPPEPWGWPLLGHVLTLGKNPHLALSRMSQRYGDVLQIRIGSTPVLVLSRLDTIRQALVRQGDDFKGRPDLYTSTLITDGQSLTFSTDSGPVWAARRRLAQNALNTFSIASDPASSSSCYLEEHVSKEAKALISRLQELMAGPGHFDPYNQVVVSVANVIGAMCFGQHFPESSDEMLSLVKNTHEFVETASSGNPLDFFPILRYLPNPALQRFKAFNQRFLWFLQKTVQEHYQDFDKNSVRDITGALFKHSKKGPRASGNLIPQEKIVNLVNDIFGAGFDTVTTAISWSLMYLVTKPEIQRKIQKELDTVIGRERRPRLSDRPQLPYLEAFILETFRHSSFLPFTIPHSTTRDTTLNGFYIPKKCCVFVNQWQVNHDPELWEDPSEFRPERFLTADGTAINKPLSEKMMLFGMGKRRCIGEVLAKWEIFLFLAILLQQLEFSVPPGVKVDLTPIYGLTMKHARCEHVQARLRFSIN

CYP2B6 = target: T4, CYP2B6 (Homo sapiens, UniProt P20813); assay: CYP2B6 inhibition; format: in vitro ADME
T4 sequence (P20813 1-491): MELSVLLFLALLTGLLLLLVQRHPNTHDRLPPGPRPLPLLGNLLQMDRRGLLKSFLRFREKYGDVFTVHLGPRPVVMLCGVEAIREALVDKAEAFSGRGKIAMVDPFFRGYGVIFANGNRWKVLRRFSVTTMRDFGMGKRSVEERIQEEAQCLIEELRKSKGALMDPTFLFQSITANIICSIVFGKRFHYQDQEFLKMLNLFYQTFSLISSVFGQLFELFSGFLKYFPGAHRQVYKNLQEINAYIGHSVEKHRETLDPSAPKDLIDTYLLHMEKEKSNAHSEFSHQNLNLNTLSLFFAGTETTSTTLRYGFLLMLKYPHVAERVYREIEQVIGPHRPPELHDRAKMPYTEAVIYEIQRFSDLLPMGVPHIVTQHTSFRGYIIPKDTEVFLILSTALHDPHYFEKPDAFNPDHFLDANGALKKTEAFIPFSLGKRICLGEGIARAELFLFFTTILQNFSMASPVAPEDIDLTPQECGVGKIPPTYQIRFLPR

CYP2C9 = CYP2C9 (Homo sapiens, UniProt P11712); assay: CYP2C9 inhibition; format: in vitro ADME
CYP2D6 = CYP2D6 (Homo sapiens, UniProt P10635); assay: CYP2D6 inhibition; format: in vitro ADME
CYP3A4 = CYP3A4 (Homo sapiens, UniProt P08684); assay: CYP3A4 inhibition; format: in vitro ADME
[5] = C57BL/6, mouse, po, plasma, male C57BL6 mice
[6] = C57BL/6, mouse, po, brain, male C57BL6 mice

Chain of CYP3A4 (P08684 whole entry): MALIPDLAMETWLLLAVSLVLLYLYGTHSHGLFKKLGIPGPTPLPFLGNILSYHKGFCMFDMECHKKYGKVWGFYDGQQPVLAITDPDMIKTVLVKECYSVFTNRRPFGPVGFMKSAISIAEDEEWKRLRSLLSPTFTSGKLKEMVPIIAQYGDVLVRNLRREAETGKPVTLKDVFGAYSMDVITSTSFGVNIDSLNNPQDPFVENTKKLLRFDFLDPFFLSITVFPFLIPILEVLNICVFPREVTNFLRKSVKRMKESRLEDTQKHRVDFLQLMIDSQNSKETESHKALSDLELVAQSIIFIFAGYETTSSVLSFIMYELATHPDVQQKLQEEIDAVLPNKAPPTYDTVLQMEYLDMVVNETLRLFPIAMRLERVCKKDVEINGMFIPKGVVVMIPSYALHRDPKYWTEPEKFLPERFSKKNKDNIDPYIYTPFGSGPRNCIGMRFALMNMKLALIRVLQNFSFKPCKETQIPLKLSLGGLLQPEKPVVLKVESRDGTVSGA
Chain of CYP2D6 (P10635 whole entry): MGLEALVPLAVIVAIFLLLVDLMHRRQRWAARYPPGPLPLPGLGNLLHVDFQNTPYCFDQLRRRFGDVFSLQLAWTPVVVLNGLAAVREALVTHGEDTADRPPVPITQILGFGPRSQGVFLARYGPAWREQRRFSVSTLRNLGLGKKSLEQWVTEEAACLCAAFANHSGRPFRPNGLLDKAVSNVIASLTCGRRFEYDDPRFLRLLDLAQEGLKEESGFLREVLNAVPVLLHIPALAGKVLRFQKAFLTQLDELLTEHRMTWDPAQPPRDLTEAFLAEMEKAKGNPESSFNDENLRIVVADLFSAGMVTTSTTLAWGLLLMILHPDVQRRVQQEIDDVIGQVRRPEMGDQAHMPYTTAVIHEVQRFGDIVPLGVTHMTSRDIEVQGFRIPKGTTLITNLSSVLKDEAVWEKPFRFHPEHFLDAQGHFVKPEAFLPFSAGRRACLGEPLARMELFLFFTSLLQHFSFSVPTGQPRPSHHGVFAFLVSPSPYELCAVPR
Chain of CYP2C9 (P11712 whole entry): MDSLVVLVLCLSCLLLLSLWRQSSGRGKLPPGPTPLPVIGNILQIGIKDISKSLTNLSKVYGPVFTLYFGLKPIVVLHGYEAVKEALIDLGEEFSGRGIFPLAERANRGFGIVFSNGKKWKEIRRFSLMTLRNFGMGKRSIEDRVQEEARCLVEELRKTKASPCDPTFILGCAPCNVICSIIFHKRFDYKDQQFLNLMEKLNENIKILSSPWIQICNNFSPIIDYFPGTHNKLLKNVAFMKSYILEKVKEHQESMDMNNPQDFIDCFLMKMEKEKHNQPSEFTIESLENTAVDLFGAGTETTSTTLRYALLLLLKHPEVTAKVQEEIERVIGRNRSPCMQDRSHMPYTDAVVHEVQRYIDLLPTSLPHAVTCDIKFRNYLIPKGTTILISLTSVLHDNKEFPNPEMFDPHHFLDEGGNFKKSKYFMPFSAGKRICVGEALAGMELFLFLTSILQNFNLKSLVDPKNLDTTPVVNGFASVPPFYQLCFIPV

Structure (SMILES): O=C(CSc1ncnc2c(C3CC3)c(Cl)sc12)N1CCOCC1 [Compound 4c]
MLM Cli [1]: >500 µL/min/mg
MDCK-MDR1 AB Papp (MDCK-MDR1 monolayer; A to B direction): 40 ×10⁻⁶ cm/s
MDCK-MDR1 BA Papp (MDCK-MDR1 monolayer; B to A direction): 38 ×10⁻⁶ cm/s

IC50 (Notum(81–451 Cys330Ser)): 0.0024 ± 0.0004 µM
Papp (P-gp (MDR1); MDCK-MDR1, A to B direction, read-out: MDCK-MDR1 AB Papp): 36 ×10⁻⁶ cm/s
Papp (P-gp (MDR1); MDCK-MDR1, B to A direction, read-out: MDCK-MDR1 BA Papp): 42 ×10⁻⁶ cm/s
Cmax [2, 5]: 120 ng/mL
AUC(0-inf) ([2]; C57BL/6, mouse, po, plasma, male C57BL6 mice, read-out: AUC(0-inf)): 70 ng·h/mL
solubility (Aqueous solubility): 77 µg/mL and 215 µM
logD (LogD7.4): 1.8
Hydrolytic stability [3]: only parent was detected
Notum enzymatic stability (Notum): only parent was detected
Structure (SMILES): Cc1sc2ncnc(SCC(=O)N3CC(=O)N(C)C3)c2c1Cl [Compound 5l]

MLM Cli ([4]; Table 5): 6.9 μL/min/mg protein
MLM Cli ([4]; mouse liver microsomes): 6.9 µL/min/mg
Metabolic stability in MLM (in words) ([4]; mouse liver microsomes): high metabolic stability
Cmax at 24 h [2, 6]: 1210 ng/g
Tmax [2, 6]: 30 min
AUC(0-inf) at 24 h [2, 5]: 5490 ng·h/mL
AUC(0-t) at 24 h [2, 5]: 5390 ng·h/mL
Cmax at 24 h [2, 5]: 3850 ng/mL
Tmax [2, 5]: 30 min
AUC(0-inf) ([2]; brain, male C57BL6 mice): 1610 ng·h/g
AUC(0-t) ([2]; brain, male C57BL6 mice): 1550 ng·h/g
Cmax[brain] (free drug) ([2]; mouse, free drug): ≈ 0.5 μM
Cmax[plasma] (free drug) ([2]; mouse, free drug): ≈ 2.2 μM
solubility (Aqueous solubility): 45 µg/mL and 120 µM
Mouse plasma stability (in words) (Mouse plasma stability; after 120 min): no degradation observed
remaining at 2 h (Mouse plasma stability; mouse, plasma, 120 min): 110%
IC50 (CYP1A2): > 30 µM
IC50 (CYP2B6): > 30 µM
IC50 (CYP2C9): > 30 µM
IC50 (CYP2D6): > 30 µM
IC50 (CYP3A4): > 30 µM
Structure (SMILES): Cc1c(C(F)(F)F)oc2ncnc(SCC(=O)N3CC(=O)N(C)C3)c12 [Compound 24, 3-Methyl-1-(2-((5-methyl-6-(trifluoromethyl)furo[2,3-d]pyrimidinyl-4-yl)thio)acetyl)imidazolin-4-one]

From publication PMC6961116, “Scaffold-hopping identifies furano[2,3-d]pyrimidine amides as potent Notum inhibitors” (Bioorganic & Medicinal Chemistry Letters, 2020)
